The results in this text go back to ChEMBL document CHEMBL1201862, “PubChem BioAssay data set” (2004).

The target of assay [1] is T1, Zinc finger protein mex-5 (Caenorhabditis elegans, UniProt Q9XUB2).
T1 sequence (Q9XUB2 whole entry): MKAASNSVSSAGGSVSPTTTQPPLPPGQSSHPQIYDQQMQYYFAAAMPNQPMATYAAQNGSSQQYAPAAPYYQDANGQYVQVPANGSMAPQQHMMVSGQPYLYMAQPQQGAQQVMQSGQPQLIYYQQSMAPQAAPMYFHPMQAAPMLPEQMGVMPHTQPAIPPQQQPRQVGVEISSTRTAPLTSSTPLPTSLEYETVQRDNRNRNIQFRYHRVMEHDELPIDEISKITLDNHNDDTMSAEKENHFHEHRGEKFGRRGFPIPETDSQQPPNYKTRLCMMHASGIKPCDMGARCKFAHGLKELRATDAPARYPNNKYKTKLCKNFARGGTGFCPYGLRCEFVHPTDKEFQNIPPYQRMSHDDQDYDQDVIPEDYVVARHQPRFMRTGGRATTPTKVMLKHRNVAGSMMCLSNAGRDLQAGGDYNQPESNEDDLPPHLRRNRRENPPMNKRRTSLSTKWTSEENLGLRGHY
Kind of assay: MEX-5/TCR-2 RNA interaction inhibitors, dose response, biochemical, C. elegans, fluorescence polarization (AID 1960). Background: Fluorescence polarisation rises when a labelled molecule tumbles more slowly, as on binding a larger partner.

The target of assay [2] is Bifunctional protein GlmU (Mycobacterium tuberculosis, UniProt P9WMN3). Kind of assay: Inhibitors of Mycobacterial Glucosamine-1-phosphate acetyl transferase (GlmU). Secondary screen. More on the design: species or system Mycobacterium tuberculosis H37Rv.
The target of assay [3] is T2, Dual specificity protein phosphatase 6 (Rattus norvegicus, UniProt Q64346).
T2 sequence (Q64346 whole entry): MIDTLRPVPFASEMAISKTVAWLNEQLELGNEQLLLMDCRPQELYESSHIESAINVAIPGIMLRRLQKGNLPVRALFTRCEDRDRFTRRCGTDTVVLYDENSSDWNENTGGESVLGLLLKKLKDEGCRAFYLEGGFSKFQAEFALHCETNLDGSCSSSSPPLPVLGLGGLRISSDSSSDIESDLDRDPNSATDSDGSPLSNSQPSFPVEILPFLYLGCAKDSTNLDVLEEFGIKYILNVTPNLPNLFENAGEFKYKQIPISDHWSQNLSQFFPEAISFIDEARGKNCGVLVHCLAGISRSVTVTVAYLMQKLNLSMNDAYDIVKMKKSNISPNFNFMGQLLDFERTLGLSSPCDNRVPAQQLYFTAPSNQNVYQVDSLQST
In words: MKP-3 phosphatase inhibitors, primary screen, biochemical, rat enzyme, in vitro (AID 425).

Assay [4] addresses Induced myeloid leukemia cell differentiation protein Mcl-1 (Homo sapiens, UniProt Q07820). The assay is classed as functional.
For a further assay, the system named is HeLa. In words: HeLa cell cytotoxicity, dose response, cytotoxicity control, 24 h, cherry-picked samples (AID 504726).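 Also: potency for cytotoxicity as loss of luminescence signal.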 The assay is classed as functional, cell-based. The note with it: Homo sapiens.
A further assay deals with Salmon testes DNA. In words: DNA intercalators displacing acridine orange, dose response, artefact control for KSHV LANA DNA-binding inhibitor project, biochemical, fluorescence polarization, cherry-picked samples, set 2 (AID 504727). The arrangement: species or system Salmonidae.
The target of another assay is ORF 73 (Human herpesvirus 8, UniProt O40947). Kind of assay: inhibitors of C-LANA binding to LBS DNA, dose response, biochemical, fluorescence polarization, cherry-picked samples (AID 504725).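 Also: fluorescence polarization of a labeled DNA duplex reporting LANA DNA binding; potency is for inhibitors that block LANA binding to the DNA.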 More on the design: species or system Human gammaherpesvirus 8.
In another assay the target is Troponin, cardiac muscle (Homo sapiens, UniProt P19429+P45379+P63316). In words: inhibitors of cardiac thin filament calcium sensitivity, dose response, biochemical, fluorescence, cardiac regulated thin filaments, triplicate IC50 (AID 504742). It counts as protein-complex assay.
The target of assay [5] is Dual specificity tyrosine-phosphorylation-regulated kinase 1A (Rattus norvegicus, UniProt Q63470). It counts as biochemical, Homo sapiens.
A further assay concerns the target Caspase-7 (Homo sapiens, UniProt P55210). Kind of assay: human caspase-7 inhibitors, dose response, selectivity assay for caspase-6 inhibitor project, biochemical, DEVD-R110 fluorescence, cherry-pick (AID 743295). It counts as […].
The next assay concerns the target Caspase-8 (Homo sapiens, UniProt Q14790). In words: caspase-8 inhibition counter-screen, dose response, selectivity assay for caspase-6 inhibitor project, biochemical, Z-IETD-R110 fluorescence, cherry-picked samples (AID 743294).
In assay [6] the target is T3, 1-phosphatidylinositol 4,5-bisphosphate phosphodiesterase beta-3 (Homo sapiens, UniProt Q01970).
T3 sequence (Q01970 whole entry): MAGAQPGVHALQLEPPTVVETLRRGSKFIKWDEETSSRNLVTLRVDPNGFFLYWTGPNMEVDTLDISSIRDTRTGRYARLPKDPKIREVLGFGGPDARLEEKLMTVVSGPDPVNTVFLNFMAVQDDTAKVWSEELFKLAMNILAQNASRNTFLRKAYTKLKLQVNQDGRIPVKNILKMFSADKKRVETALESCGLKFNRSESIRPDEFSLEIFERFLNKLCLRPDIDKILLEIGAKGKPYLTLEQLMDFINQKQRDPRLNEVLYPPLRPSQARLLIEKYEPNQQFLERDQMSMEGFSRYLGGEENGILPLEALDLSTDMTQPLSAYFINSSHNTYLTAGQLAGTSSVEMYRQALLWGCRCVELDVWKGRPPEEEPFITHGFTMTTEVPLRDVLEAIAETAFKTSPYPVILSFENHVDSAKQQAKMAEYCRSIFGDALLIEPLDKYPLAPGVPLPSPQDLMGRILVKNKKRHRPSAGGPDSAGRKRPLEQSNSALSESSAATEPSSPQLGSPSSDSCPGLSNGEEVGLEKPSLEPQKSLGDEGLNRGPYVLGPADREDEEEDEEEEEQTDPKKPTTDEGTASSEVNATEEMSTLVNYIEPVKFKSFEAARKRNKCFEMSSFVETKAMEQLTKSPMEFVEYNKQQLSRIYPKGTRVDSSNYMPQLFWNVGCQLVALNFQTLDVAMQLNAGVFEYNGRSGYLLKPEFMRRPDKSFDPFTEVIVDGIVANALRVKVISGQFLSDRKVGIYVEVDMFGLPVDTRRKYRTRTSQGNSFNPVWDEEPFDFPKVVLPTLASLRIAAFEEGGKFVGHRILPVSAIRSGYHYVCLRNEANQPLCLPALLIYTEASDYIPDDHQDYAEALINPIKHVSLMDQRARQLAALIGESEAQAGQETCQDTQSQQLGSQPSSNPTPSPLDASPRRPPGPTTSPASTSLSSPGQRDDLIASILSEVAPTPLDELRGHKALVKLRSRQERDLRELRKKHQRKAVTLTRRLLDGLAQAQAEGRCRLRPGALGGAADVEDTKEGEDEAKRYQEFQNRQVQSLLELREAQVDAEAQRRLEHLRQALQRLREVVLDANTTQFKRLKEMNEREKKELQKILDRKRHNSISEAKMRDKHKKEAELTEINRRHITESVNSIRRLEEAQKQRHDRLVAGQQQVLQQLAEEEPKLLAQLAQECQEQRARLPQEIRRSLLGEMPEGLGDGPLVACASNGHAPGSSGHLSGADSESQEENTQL
In words: Fluorescence-based biochemical high throughput dose response assay to identify inhibitors of phospholipase C isozymes (PLC-B3).

Activity calls are given as the source filed them. Bounds are passed on as bounds.

Induced myeloid leukemia cell differentiation protein Mcl-1, sequence (Q07820 whole entry): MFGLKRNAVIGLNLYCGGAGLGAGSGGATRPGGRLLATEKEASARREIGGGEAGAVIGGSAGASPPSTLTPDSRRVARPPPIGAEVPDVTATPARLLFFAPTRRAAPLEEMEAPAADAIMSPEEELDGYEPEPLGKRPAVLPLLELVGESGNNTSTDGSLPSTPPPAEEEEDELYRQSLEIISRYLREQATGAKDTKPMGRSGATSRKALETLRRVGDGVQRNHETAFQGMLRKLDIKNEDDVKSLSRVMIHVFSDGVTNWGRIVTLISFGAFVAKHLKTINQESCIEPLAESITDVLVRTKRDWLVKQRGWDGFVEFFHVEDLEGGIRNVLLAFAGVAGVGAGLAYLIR
Caspase-7, sequence (P55210 24-198 limits assumed): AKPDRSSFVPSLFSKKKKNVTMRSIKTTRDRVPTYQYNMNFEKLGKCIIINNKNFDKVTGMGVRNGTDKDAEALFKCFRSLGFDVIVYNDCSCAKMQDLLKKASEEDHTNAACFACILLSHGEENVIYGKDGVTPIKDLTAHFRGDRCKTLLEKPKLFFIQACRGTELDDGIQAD
Caspase-7, sequence (P55210 207-303 limits assumed): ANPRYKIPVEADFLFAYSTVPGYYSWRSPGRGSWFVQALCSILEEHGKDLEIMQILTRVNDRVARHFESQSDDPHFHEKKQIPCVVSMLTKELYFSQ
ORF 73, sequence (O40947 whole entry): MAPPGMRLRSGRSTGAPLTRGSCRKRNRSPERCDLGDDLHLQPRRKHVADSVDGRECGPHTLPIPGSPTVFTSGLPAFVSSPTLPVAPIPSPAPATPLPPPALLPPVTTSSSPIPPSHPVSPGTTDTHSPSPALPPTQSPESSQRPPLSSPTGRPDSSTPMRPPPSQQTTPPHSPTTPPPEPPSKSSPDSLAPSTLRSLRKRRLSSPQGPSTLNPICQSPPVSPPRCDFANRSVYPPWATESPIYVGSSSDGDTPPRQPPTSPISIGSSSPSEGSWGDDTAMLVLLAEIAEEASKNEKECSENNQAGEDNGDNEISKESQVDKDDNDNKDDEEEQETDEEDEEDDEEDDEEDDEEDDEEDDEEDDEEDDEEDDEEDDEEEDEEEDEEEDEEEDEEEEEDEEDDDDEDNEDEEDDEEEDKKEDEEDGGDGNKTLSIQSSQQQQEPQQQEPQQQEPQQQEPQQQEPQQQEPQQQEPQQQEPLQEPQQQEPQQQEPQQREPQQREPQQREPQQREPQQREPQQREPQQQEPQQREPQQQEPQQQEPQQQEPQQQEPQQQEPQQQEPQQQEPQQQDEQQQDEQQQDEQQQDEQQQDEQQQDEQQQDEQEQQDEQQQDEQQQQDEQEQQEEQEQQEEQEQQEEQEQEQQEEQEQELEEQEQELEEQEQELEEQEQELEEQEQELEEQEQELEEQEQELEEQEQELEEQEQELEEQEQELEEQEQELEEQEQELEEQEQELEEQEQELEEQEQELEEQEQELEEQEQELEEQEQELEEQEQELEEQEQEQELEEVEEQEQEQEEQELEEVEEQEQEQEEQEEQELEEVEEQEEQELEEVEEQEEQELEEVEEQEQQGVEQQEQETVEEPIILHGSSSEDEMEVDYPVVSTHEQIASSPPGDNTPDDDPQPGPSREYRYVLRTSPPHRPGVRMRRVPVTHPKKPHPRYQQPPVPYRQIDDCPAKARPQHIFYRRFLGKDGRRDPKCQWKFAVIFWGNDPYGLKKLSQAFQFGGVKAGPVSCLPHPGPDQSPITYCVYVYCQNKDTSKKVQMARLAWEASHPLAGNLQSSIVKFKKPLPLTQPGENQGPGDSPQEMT
Bifunctional protein GlmU, sequence (P9WMN3 whole entry): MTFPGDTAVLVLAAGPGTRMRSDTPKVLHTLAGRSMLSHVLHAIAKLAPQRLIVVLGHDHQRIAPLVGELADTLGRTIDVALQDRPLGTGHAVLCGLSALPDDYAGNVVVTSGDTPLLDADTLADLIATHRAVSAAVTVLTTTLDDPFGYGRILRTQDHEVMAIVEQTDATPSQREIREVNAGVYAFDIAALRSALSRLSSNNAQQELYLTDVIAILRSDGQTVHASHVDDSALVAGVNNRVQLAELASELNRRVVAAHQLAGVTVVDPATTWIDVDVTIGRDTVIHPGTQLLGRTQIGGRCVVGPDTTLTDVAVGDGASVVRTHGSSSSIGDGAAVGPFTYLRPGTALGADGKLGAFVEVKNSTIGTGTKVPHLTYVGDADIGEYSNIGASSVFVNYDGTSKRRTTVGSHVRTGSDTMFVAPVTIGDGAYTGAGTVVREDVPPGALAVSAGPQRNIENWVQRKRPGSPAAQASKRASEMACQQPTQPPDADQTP
Caspase-8, sequence (Q14790 217-374 limits assumed): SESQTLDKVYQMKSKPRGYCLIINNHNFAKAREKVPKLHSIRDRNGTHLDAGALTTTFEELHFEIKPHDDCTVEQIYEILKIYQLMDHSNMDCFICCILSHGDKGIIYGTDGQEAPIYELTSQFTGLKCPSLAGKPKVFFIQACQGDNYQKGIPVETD
Caspase-8, sequence (Q14790 385-479 limits assumed): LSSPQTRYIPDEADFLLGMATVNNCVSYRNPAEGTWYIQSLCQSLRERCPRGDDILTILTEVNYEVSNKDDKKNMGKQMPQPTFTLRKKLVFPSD

Usually EC50 stands for the midpoint of the concentration-response curve. In general, IC50 refers to the concentration that gives 50% inhibition. For orientation: AC50 means the concentration at which the activity in the assay is half-maximal. In the case of `O=c1c(O)cccc2cc(O)c(O)c(O)c12` [PURPUROGALLIN], the EC50 in assay [1] was 0.152 µM (active). In addition, the IC50 was 21.5 µM (active) in [2]; 29.2 µM (active) in assay [3]; > 54 µM (active) in assay [4]; 3.62 µM (active) at Troponin, cardiac muscle; > 123 µM (inactive) in assay [6]. Moreover, the half-maximal activity concentration (AC50) in the assay with HeLa is 103 µM (active); with Salmon testes DNA, 49.9 µM (active); on ORF 73, 25.9 µM (active); in assay [5], 1.61 µM (active); on Caspase-7, 1.09 µM (active); on Caspase-8 it was > 70 µM (inactive).
